This passage reports Ki results from BindingDB's records for doi:10.1021/jm00016a010 (University of Innsbruck, 1995).

The experiment can be described thus: binding affinity was evaluated by measuring the ability to displace [3H]DPDPE radioligand binding from delta opioid receptor in guinea pig brain membranes.

The molecule `CCO[C@@]12CCC(=O)CC13CCN(CC1CC1)C2Cc1ccc(O)c(OC)c13` (stereo not given in full) [17-cyclopropylmethyl-10-ethoxy-4-hydroxy-3-methoxy-17-azatetracyclo[7.5.3.01,10.02,7]heptadeca-2(7),3,5-trien-13-one] gave a Ki of 21 nM.

In turn, `CCCCOc1c(O)ccc2c1C13CCN(CC4CC4)C(C2)[C@]1(OC)CCC(=O)C3` (stereo not given in full) [3-butoxy-17-cyclopropylmethyl-4-hydroxy-10-methoxy-17-azatetracyclo[7.5.3.01,10.02,7]heptadeca-2(7),3,5-trien-13-one] came in with a Ki of 42 nM.

In the case of `COc1c(O)ccc2c1C13CCN(CC4CC4)C(C2)[C@]1(O)CCC(=O)C3` (stereo not given in full) [17-cyclopropylmethyl-4,10-dihydroxy-3-methoxy-17-azatetracyclo[7.5.3.01,10.02,7]heptadeca-2(7),3,5-trien-13-one], affinity was put at a Ki of 334 nM.

In the case of `COc1cccc2c1[C@]13CCN(CC4CC4)[C@H](C2)[C@]1(OC)CCC(=O)C3` [Naltrindole analogue], affinity was put at a Ki of 61 nM.

The molecule `COc1c(O)ccc2c1C13CCN(CC4CC4)C(C2)[C@]1(OC)CCC(=O)C3` (stereo not given in full) [17-cyclopropylmethyl-4-hydroxy-3,10-dimethoxy-17-azatetracyclo[7.5.3.01,10.02,7]heptadeca-2(7),3,5-trien-13-one] came in with a Ki of 14 nM.

As a reminder, the Ki is a measure of affinity in units of concentration, obtained from inhibition or displacement. The low end stands for a stronger hold on the target, the high end for a looser hold on the target.
